For data set [1], the system named is arthritic pain model in rat. The experiment in a line: PIFIR model: uric acid-induced arthritic pain model in rat, antinociceptive activity. Conditions: oral; for DE50: dose causing 50% of maximum possible effect, drug alone. As for the experimental part: An arthritic pain model in rat was determined for said purpose. Data were interpreted by a Surface Synergistic Interaction analysis (ISS) and an isobolographic analysis to determine the interaction nature. ISS was calculated from the total antinociceptive effect produced by the combination after subtracting the antinociceptive effect produced by drug separately.
For this study Wistar female rats were used [Crl (WI) BR] weighing between 180 to 200 gr. […] Number of animals in experiment was kept minimal and animals were kept in a room with climate and light control with a 12-hour light/dark cycle.
At the completion of study rats were sacrificed.
Animals were anesthesized with ether in a chamber (Pyrex glass dryer with ether vapor). Nociception was induced through a 0.05 mL uric acid intraarticular (ia) injection suspended in mineral oil in knee joint from right back leg. The suspension was prepared by milling 3.0 g. of uric acid with 10 mL of mineral oil in a glass mortar with pestle (Pyrex). Intraarticular injection was carried out through patellar ligament using a 1 mL glass syringe (Beckton Dickinson LTA, Brazil) with a 5 mm 24-gauge needle. An electrode was implanted immediately after to the plantar surface of each back claw between plantar pads. […] Contact time between each electrode from rat limb and cylinder was registered. […] This time was determined as zero time for measuring antinociceptive effects; these effects were measured every 30 minutes during the following 4 hours. This allowed determining the time course for antinociceptive effects in the same animal. Antinociception was considered as a recovery of contact time. Data are expressed as Functionality percentage index (IF%, that is, contact time on injected leg by the contact time in left leg, control, multiplied by 100). For the purpose of this study, nociception induction in experimental animals was unavoidable. However, care was taken to prevent an unnecessary suffering. All experiments were performed between 7:00 am and 2:00 pm.
Study data, tables and figures are expressed as IF%. Curves for IF% vs time were prepared for each treatment and the corresponding course time was obtained. Antinociception was estimated as a recovery of IF%. Accumulated antinociceptive effect during the whole observation period (4 hours) was determined as the area below the curve (ABC) from time course to obtain a dose-response curve and for analyzing the total antinociceptive effect obtained by analgesic agent whether alone or in combination.
ABC was calculated for each drug combination and for each of the components. […] If the […] ABC was higher than the theoretical sum, the result was considered enhancement; when it was similar to the theoretical sum then was determined to show additive antinociceptive effects. […] All values for each treatment are average ± S. E. M., for six animals. ABC values for drug combinations were compared with expected values using the Student test.
Doses which caused 50% of maximum possible effect (DE50) of each drug were calculated by performing a linear regression analysis of the linear portion from dose-response curves. The isobologram was prepared by using the DE50 when drugs were delivered alone or in combination. […] DE50 value from combination total dose was calculated from the dose-response curve of combined drugs. Statistical significance between additive theoretical point and DE50 experimental value was validated by using the Student test.

In data set [2] the test system is patients with Gouty arthritis. As to the kind of experiment: Clinical study (Phase I): combination of Allopurinol/Meloxicam vs independent delivery, 52 weeks follow-up. The format is in vivo. Conditions: for Uric Acid Average, baseline / Uric Acid Average, at the end of study: Allopurinol 300 mg per day, Meloxicam 15 mg per day, or combination 300 mg/15 mg, n=50 per group; for Uric Acid Average, at the end of study: end of study (52 weeks). As for the experimental part:
A clinical study was carried out assessing the efficacy of a combination of Allopurinol/Meloxicam vs independent delivery of Allopurinol and Meloxicam in patients with Gouty arthritis.
There were 150 patients with gout and with uric acid levels at least of 8 mg/dL randomly selected for this study.
Main validation criterion was uric acid concentration of 6 mg/dL, in the last 3 monthly determinations. Secondary validation criteria included a reduction of incidence in gout worsening events.

For data set [3] the following is noted: cited from earlier work.
A further data set has as its system plasma proteins. Conditions: cited from earlier work.

Structures are written as SMILES.

As to `Oc1ncnc2[nH]ncc12` [Allopurinol], the ABC in data set [1] (Allopurinol 10.0 mg/kg alone, 4 hours) turned out to be 22.5 ± 9.3 au; in data set [1] (Allopurinol 17.78 mg/kg alone, 4 hours), 58.2 ± 23.7 au. In addition, the “antinociceptive efficacy (ABC)” value in data set [1] (Allopurinol 56.23 mg/kg, 4 hours) was determined as 207.7 ± 24.7 au. Besides, the “side effects in animals” value in data set [1] (Allopurinol at 100 mg/kg) was “did not cause side effects”. In data set [1] (Meloxicam 0.18-5.62 mg/kg, Allopurinol 3.16-56.23 mg/kg), the “walking capability of treated rats” value is on record as “did not affect the walking capability”. Moreover, the DE50 in data set [1] is 44.29 ± 0.06 mg/kg. Further, in data set [2] (along 9 to 52 weeks, comparison between groups), the “global incidence of acute events” value is reported as “similar”. Besides, in data set [2], the “Uric Acid Average, baseline” value came out at 9 mg/dL. In data set [2], the “Uric Acid Average, at the end of study” value was 7 mg/dL. In addition, the “adverse events reported (gastrointestinal upset)” value in data set [2] (number of events per group of 50 patients, 52 weeks) is “Six”. Also, the “ingested drug excreted in stools” value in data set [3] (in vivo) was “About 20%”.

Consider `Cc1ccc(-c2cc(C(F)(F)F)nn2-c2ccc(S(N)(=O)=O)cc2)cc1` [Celecoxib], for which the “time to maximum plasma levels” value in data set [3] (after oral dose) is given as “about 3 hours”. Further, in data set [3] (as metabolites), the “dose recovered in feces” value was 57% and the “dose recovered in urine” value is reported as 27%. For the same compound, in data set [3] (clearance half-life), the half-life entry is on record as “about 11 hours”. Besides, in data set [3] (in vivo), the Plasmatic clearance entry is listed as “about 500 mL/min” and the distribution volume result was “about 400 L”.

On to `Cc1cnc(NC(=O)C2=C(O)c3ccccc3S(=O)(=O)N2C)s1` [Meloxicam], for which the ABC in data set [1] (Meloxicam 0.32 mg/kg alone, 4 hours) is 65.0 ± 9.6 au; in data set [1] (Meloxicam 0.56 mg/kg alone, 4 hours) it was 98.7 ± 15.5 au; in data set [1] (Meloxicam 1.78 mg/kg alone, 4 hours), 279.0 ± 15.5 au. In addition, the “antinociceptive efficacy (ABC)” value in data set [1] (Meloxicam 2.16 mg/kg (so in the source), 4 hours) is 295.8 ± 14.9 au. In addition, the “antinociceptive effect (ABC)” value in data set [1] (Meloxicam 3.16 mg/kg (maximum used dosage), 4 hours) is listed as 295.8 ± 14.9 au. For the same compound, in data set [1], the DE50 is 0.86 ± 0.10 mg/kg. In the data set with plasma proteins, the “adherence with plasma proteins” value is above 99%. In addition, the “Uric Acid Average, baseline” value in data set [2] was determined as 10 mg/dL. In addition, the “Uric Acid Average, at the end of study” value in data set [2] was determined as 9 mg/dL. In addition, in data set [3] (oral), the bioavailability is 89%.

The term bioavailability denotes the share of a dose that reaches the circulation, judged against a reference dose that is usually intravenous.
